# Experimental data as given in patent US9040501B2, “Compositions and methods for treating cancer” (Eisai Inc., priority 2009, dated 2015).
# Like-named read-outs stand apart in the source and are kept apart here. Marks after values point to notes of the source that are not given here.
# How the values were obtained:
# CDA = CDA (Homo sapiens (Human), UniProt P32320); settings: deamination by CDA; Chabot et al. 1983, Bouffard et al. 1993; cited from earlier work
# murine lymphoma L1210 [1] = settings: for Mean Survival (days) ± SD: twice a day (8 hours apart), 4 days
# Procedure: Or, a stock of L1210 ascites in BSA solution was diluted to 1×10^4 cells/0.1 ml for use in the study mice.
# (§1) The mice were prepared with intravenous (IV) injection of L1210 ascites (prepared as described above) one day prior to commencing the dosing. […] The total IV injection for all mice took about 50 minutes.
# All solutions were stored on ice while dosing. Mice were dosed (intraperitoneally (IP) or per os (orally, PO)) twice a day (8 hours apart) for 4 consecutive days.
# (§2) Dead mice were autopsied and observed for the presence of tumors in organs.
# murine lymphoma L1210 [2] = settings: for Mean Liver wts (g) ± SD / Mean Spleen wts (g) ± SD: on autopsy; for % ILS (Increased Life Span): vs vehicle group
# Procedure: Preparation of L1210 Cells: L1210 ascitic cells were prepared by passaging them in mice at least three times as follows. Each CD2F1 female mouse was intraperitoneally (IP) injected with about 10^5 L1210 ascitic cells. After one week, the mouse was sacrificed (asphyxiation via CO2). The mouse was placed on its back, its belly surface was cleaned with alcohol wipes, and a small incision was made into the peritoneal cavity. […] Diluted ascites (diluted 1:10 again) were counted on a hematocytometer and the number of cells per mL was calculated. About 10^5 L1210 cells were used for a subsequent passage for another mouse passage. Or, a stock of L1210 ascites in BSA solution was diluted to 1×10^4 cells/0.1 ml for use in the study mice.
# as §1
# Decitabine was prepared fresh twice a day, just prior to dosing. All solutions were stored on ice while dosing. Mice were dosed (intraperitoneally (IP) or per os (orally, PO)) twice a day (8 hours apart) for 4 consecutive days.
# as §2
# Preparation of study mice with IV injection of L1210 ascites took about 60 minutes. […] All solutions were stored on ice while dosing. Mice were dosed (IP or PO) twice a day (7 or 8 hours apart) for 4 consecutive days.
# cytidine deaminase (CDA) = cytidine deaminase (CDA) (Homo sapiens (Human), UniProt P32320); assay: Effect of ER-876437 on the half-life of decitabine in the presence of CDA in Tris-HCl buffer at 37° C.; format: biochemical; settings: for half-life at 0.2 mM: pH 7.4, Estimated T1/2 of decitabine
# Procedure: The solvent delivery system employed an HPLC quaternary pump, low pressure mixing. An autosampler having a variable loop, 0.1 to 100 μL range and temperature controlled thermostat was used. […] Degassed HPLC grade water and degassed HPLC grade acetonitrile were used as solvents for the mobile phases. […] [table]
# [3] = Pharmacokinetics in mice after IV and PO administrations; format: in vivo, male BALB-c mice
# Procedure: […]. All doses were prepared in phosphate buffered saline (PBS) and were administered at a volume of 5 mL/kg. Five mice per group were used in these studies. Blood samples were taken serially from the tail vein of each mouse at predetermined timepoints. Blood samples from all mice in each group were pooled together prior to processing for plasma. The pooled blood samples were spun down within 30-60 minutes after withdrawal and the plasma was harvested and frozen for assay. After preparation and extraction the samples were assayed by LC/MS/MS.
# [4] = Stability in simulated gastric fluid at 37° C. (HPLC); format: physicochemical;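 on % ER-876400 (peak retention time: 1.46 min): percent of total sample signal attributed to the analyte peak at each sampling time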
# Excerpt: […]. See Kararli, T. T. Comparison of the GI anatomy, physiology, and biochemistry of humans and commonly used laboratory animals. BioPharm & DrugDispos. 16:351-380, 1995, which is hereby wholly incorporated by reference. The gastric pH in fasted monkeys has been reported to have a similar range of 1-3. See Kondo, H. et al. Characteristics of the gastric pH profiles of unfed and fed cynomolgus monkeys as pharmaceutical product development subjects. BioPharm & DrugDispos. 24:45-51, 2003, which is hereby wholly incorporated by reference.
# Materials: Simulated gastric fluid (SGF) was prepared by mixing the following into 100 mL of HPLC grade (or purified) water: 200 mg of sodium chloride and 1.87 mL of a 37.52% HCl stock solution.
# The HPLC analyses were conducted using a Waters UPLC solvent delivery system with Corona CAD detection. The HPLC Column (Waters Atlantis HHS T3 2.1×100 mm, 1.8 um) was maintained at 40° C. and preequilibrated with a solution containing 98% water and 2% acetonitrile. The temperature controlled auto-sampler was maintained at 37° C. The flow rate for the Water/MeCN mobile phase was 0.65 mL/min, with a gradient following sample injection (5 μL) as follows: […]
# The Water/MeCN mobile phase was applied to the column with the above described flow rate and gradient and the HPLC chromatograms were collected. After 3.5 minutes, the column was reequilibrated with 98% water/2% MeCN for 1.5 minutes.
# [5] = Veh/decitabine 0.1 mg/kg PO, on autopsy
# [6] = Veh/decitabine 0.1 mg/kg PO (7 hours apart)
# [7] = Veh/decitabine 0.1 mg/kg PO (8 hr.)
# [8] = male, BALB-c, mouse, plasma, 10 mg/kg IV
# [9] = male, BALB-c, mouse, plasma, 10 mg/kg IV, read-out: Plasma concentrations
# [10] = male, BALB-c, mouse, plasma, 10 mg/kg PO, read-out: Plasma concentrations
# cytidine deaminase (CDA), sequence (P32320 whole entry): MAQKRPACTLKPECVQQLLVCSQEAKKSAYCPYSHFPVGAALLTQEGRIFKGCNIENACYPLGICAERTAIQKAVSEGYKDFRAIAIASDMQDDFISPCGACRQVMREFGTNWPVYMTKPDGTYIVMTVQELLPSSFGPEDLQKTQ
# CDA, sequence (P32320 whole entry): as above
compound,measurement,setting,value
Nc1ccn([C@H]2C[C@H](O)[C@@H](CO)O2)c(=O)n1 [deoxycytidine],Km,CDA,19 ± 4 µM
"Nc1ncn([C@H]2C[C@H](O)[C@@H](CO)O2)c(=O)n1 [decitabine, 5-aza-2′-deoxycytidine]",Mean Survival (days) ± SD,murine lymphoma L1210 [1]; Veh/decitabine 0.1 mg/kg IP,13.4 ± 0.89 days
same,Mean Liver wts (g) ± SD,murine lymphoma L1210 [1]; [5],2.17 ± 0.1 g
same,Mean Spleen wts (g) ± SD,murine lymphoma L1210 [1]; [5],0.34 ± 0.04 g
same,Mean Survival (days) ± SD,murine lymphoma L1210 [1]; Veh/decitabine 0.1 mg/kg PO,11.2 ± 0.45 days
same,% ILS (Increased Life Span),"murine lymphoma L1210 [1]; Veh/decitabine 0.1 mg/kg PO, vs vehicle group",51.35%
same,difference in survival when dosed 7 or 8 hours apart,"murine lymphoma L1210 [2]; 0.1 mg/kg decitabine PO twice a day, 4 days",no difference in survival
same,Mean Survival (days) ± SD,"murine lymphoma L1210 [2]; Veh/decitabine 0.1 mg/kg IP, twice a day (7 hours apart), 4 days",13.6 ± 0.55 days
same,Mean Liver wts (g) ± SD,murine lymphoma L1210 [2]; [6],2.02 ± 0.31 g
same,Mean Spleen wts (g) ± SD,murine lymphoma L1210 [2]; [6],0.36 ± 0.11 g
same,% ILS (Increased Life Span),murine lymphoma L1210 [2]; [6],47.50%
same,Mean Liver wts (g) ± SD,murine lymphoma L1210 [2]; [7],1.81 ± 0.41 g
same,Mean Spleen wts (g) ± SD,murine lymphoma L1210 [2]; [7],0.33 ± 0.06 g
same,Mean Survival (days) ± SD,"murine lymphoma L1210 [2]; Veh/decitabine 0.1 mg/kg PO (8 hr.), twice a day (8 hours apart), 4 days",11.6 ± 0.55 days
same,% ILS (Increased Life Span),murine lymphoma L1210 [2]; [7],45.00%
same,Mean Survival (days) ± SD,"murine lymphoma L1210 [2]; Veh/decitabine 0.1 mg/kg PO, twice a day (7 hours apart), 4 days",11.8 ± 0.84 days
same,Estimated T1/2 of decitabine,cytidine deaminase (CDA); Decitabine in Tris-HCl buffer at 37° C. (absence of CDA),9 h
same,Estimated T1/2 of decitabine,cytidine deaminase (CDA); Decitabine with CDA and ER-876437 in Tris-HCl buffer at 37° C.,9 h
same,half-life at 0.2 mM,"cytidine deaminase (CDA); Tris-HCl buffer, Decitabine in Tris-HCl buffer at 37° C. (absence of CDA)",9 h
same,half-life at 0.2 mM,"cytidine deaminase (CDA); cytidine deaminase (CDA) in Tris-HCl buffer, Decitabine with CDA and ER-876437 in Tris-HCl buffer at 37° C.",9 h
same,half-life at 0.2 mM,"cytidine deaminase (CDA); cytidine deaminase (CDA) in Tris-HCl buffer, Decitabine with CDA in Tris-HCl buffer at 37° C.",~0.383 h
"O=C1NCC=CCN1[C@@H]1O[C@H](CO)[C@@H](O)[C@H]1O [ER-876400, (Z)-3,4-dihydro-1-((2R,3R,4S,5R)-tetrahydro-3,4-dihydroxy-5-(hydroxymethyl)furan-2-yl)-1H-1,3-diazepin-2(7H)-one, reference compound]",AUC0-∞,[3]; 10 mg/kg IV,20999 ng·h/mL
same,AUC0-∞/D,[3]; 10 mg/kg IV,2100 ng · hr/mL/D
same,AUCExtrap,[3]; 10 mg/kg IV,10.3%
same,CL,[3]; 10 mg/kg IV,8 mL/min/kg
same,dose-normalized exposures (AUC0-∞),[3]; 10 mg/kg IV,2100 ng·h/mL per mg/kg
same,t1/2,[3]; 10 mg/kg IV,16.1 h
same,Plasma concentrations,"[3]; 10 mg/kg IV, 2 hr",1753 ^a ng/mL
same,AUC(0-t),[3]; 10 mg/kg PO,13160 ng·h/mL
same,AUC(0-inf),[3]; [8],21000 ng·h/mL
same,clearance,[3]; [8],8 mL/min/kg
same,half-life,[3]; [8],16.1 h
same,concentration at 0.167 hr,[3]; [9],19900 ng/mL
same,concentration at 0.5 hr,[3]; [9],10200 ng/mL
same,concentration at 1 hr,[3]; [9],4210 ng/mL
same,concentration at 4 hr,[3]; [9],495 ng/mL
same,concentration at 6 hr,[3]; [9],118 ng/mL
same,concentration at 8 hr,[3]; [9],59 ng/mL
same,concentration at 24 hr,[3]; [9],93 ng/mL
same,AUC(0-t),"[3]; male, BALB-c, mouse, plasma, 10 mg/kg IV, read-out: AUC0-t",18800 ng·h/mL
same,Vd,"[3]; male, BALB-c, mouse, plasma, 10 mg/kg IV, read-out: Vss",3.2 L/kg
same,Cmax,"[3]; male, BALB-c, mouse, plasma, 10 mg/kg PO",7860 ng/mL
same,bioavailability,"[3]; male, BALB-c, mouse, plasma, 10 mg/kg PO vs IV, calculated based on AUC0-t, read-out: F (bioavailability)",69.9%
same,concentration at 0.167 hr,[3]; [10],7100 ng/mL
same,concentration at 0.5 hr,[3]; [10],7860 ng/mL
same,concentration at 1 hr,[3]; [10],4660 ng/mL
same,concentration at 2 hr,"[3]; male, BALB-c, mouse, plasma, 10 mg/kg PO, 2 hr, read-out: Plasma concentrations",1750 ng/mL
same,concentration at 4 hr,[3]; [10],320 ng/mL
same,concentration at 6 hr,[3]; [10],87 ng/mL
same,concentration at 8 hr,[3]; [10],44 ng/mL
same,concentration at 24 hr,[3]; [10],264 ng/mL
same,AUC(0-t),"[3]; male, BALB-c, mouse, plasma, 10 mg/kg PO, read-out: AUC0-t",13200 ng·h/mL
same,% ER-876400 (peak retention time: 1.46 min),"[4]; SGF at 37° C., analysis time 0:00:30",19.59%
same,% ER-876400 (peak retention time: 1.46 min),"[4]; SGF at 37° C., analysis time 0:06:08",17.04%
same,% ER-876400 (peak retention time: 1.46 min),"[4]; SGF at 37° C., analysis time 0:11:45",16.72%
same,% ER-876400 (peak retention time: 1.46 min),"[4]; SGF at 37° C., analysis time 0:17:23",15.17%
same,% ER-876400 (peak retention time: 1.46 min),"[4]; SGF at 37° C., analysis time 0:23:01",14.20%
same,% ER-876400 (peak retention time: 1.46 min),"[4]; SGF at 37° C., analysis time 0:28:38",13.23%
same,% ER-876400 (peak retention time: 1.46 min),"[4]; SGF at 37° C., analysis time 0:34:16",12.51%
same,% ER-876400 (peak retention time: 1.46 min),"[4]; SGF at 37° C., analysis time 0:39:54",14.05%
same,% ER-876400 (peak retention time: 1.46 min),"[4]; SGF at 37° C., analysis time 0:45:33",11.42%
same,% ER-876400 (peak retention time: 1.46 min),"[4]; SGF at 37° C., analysis time 0:51:10",10.71%
same,% ER-876400 (peak retention time: 1.46 min),"[4]; SGF at 37° C., analysis time 0:56:48",8.87%
same,% ER-876400 (peak retention time: 1.46 min),"[4]; SGF at 37° C., analysis time 1:02:27",9.14%
same,% ER-876400 (peak retention time: 1.46 min),"[4]; SGF at 37° C., analysis time 1:08:07",8.81%
same,% ER-876400 (peak retention time: 1.46 min),"[4]; SGF at 37° C., analysis time 1:13:46",7.66%
same,% ER-876400 (peak retention time: 1.46 min),"[4]; SGF at 37° C., analysis time 1:19:23",4.05%
same,% ER-876400 (peak retention time: 1.46 min),"[4]; SGF at 37° C., analysis time 1:25:01",6.44%
same,% ER-876400 (peak retention time: 1.46 min),"[4]; SGF at 37° C., analysis time 1:30:38",5.92%
same,% ER-876400 (peak retention time: 1.46 min),"[4]; SGF at 37° C., analysis time 1:36:16",5.72%
same,% ER-876400 (peak retention time: 1.46 min),"[4]; SGF at 37° C., analysis time 1:41:53",5.69%
same,% ER-876400 (peak retention time: 1.46 min),"[4]; SGF at 37° C., analysis time 1:47:32",4.98%
same,% ER-876400 (peak retention time: 1.46 min),"[4]; SGF at 37° C., analysis time 1:53:10",4.51%
same,% ER-876400 (peak retention time: 1.46 min),"[4]; SGF at 37° C., analysis time 1:58:49",3.85%
same,% ER-876400 (peak retention time: 1.46 min),"[4]; SGF at 37° C., analysis time 2:04:28",3.59%
same,% ER-876400 (peak retention time: 1.46 min),"[4]; SGF at 37° C., analysis time 2:21:24",2.82%
same,% ER-876400 (peak retention time: 1.46 min),"[4]; SGF at 37° C., analysis time 2:49:37",1.52%
same,% ER-876400 (peak retention time: 1.46 min),"[4]; SGF at 37° C., analysis time 3:17:48",0.81%
same,% ER-876400 (peak retention time: 1.46 min),"[4]; SGF at 37° C., analysis time 3:23:28",0.62%
same,% ER-876400 (peak retention time: 1.46 min),"[4]; SGF at 37° C., analysis time 3:46:00",0.39%
same,% ER-876400 (peak retention time: 1.46 min),"[4]; SGF at 37° C., analysis time 3:51:38",0.25%
same,% ER-876400 (peak retention time: 1.46 min),"[4]; analysis time 0:00:00, initial sample in water",84.04%
same,time to degrade by 50%,[4]; simulated gastric fluid (pH 1.45) at 37° C.,less than 30 seconds
